Target: GLP1R (Homo sapiens, UniProt P43220)
Test: GLP1R cAMP HTRF assay, HEK293/GLP-1R/CRE/Luc (HEK293T cells)
Format: cell-based
Conditions: read-out: EC50
Outline: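 cAMP accumulation via HTRF after 30 min, 37 °C exposure of 1000 receptor-expressing cells/well to compound (0.5% DMSO final) in IBMX (500 μM)/0.1% BSA DPBS.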

Sequence of GLP1R (P43220 24-463): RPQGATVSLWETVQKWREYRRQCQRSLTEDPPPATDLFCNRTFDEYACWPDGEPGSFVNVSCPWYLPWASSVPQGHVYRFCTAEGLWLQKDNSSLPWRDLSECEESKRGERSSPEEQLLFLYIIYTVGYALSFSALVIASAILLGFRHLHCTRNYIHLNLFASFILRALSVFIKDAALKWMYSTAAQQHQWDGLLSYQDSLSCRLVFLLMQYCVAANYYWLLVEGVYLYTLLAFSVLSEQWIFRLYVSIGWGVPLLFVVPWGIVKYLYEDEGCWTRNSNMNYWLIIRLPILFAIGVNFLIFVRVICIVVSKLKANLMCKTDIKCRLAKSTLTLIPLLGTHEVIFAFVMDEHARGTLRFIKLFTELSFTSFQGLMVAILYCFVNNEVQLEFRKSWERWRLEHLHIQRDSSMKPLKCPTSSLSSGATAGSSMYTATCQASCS

| SMILES | EC50 [nM] |
| --- | --- |
| O=C(O)c1ccc2nc(CN3CCCN(c4cccc(OCc5ccc(Cl)cc5F)n4)C(=O)C3)n(C[C@@H]3CCO3)c2c1 [Compound 56, (S)-2-((4-(6-((4-chloro-2-fluorobenzyl)oxy)pyridin-2-yl)-3-oxo-1,4-diazepan-1-yl)methyl)-1-(oxetan-2-ylmethyl)-1H-benzo[d]imidazole-6-carboxylic acid] | > 1000 |
| O=C(O)c1ccc2nc(CN3CC4CCC3CN4c3cccc(OCc4ccc(Cl)cc4F)n3)n(C[C@@H]3CCO3)c2c1 (stereo partly drawn) [Compound 17, 2-((5-(6-((4-chloro-2-fluorobenzyl)oxy)pyridin-2-yl)-2,5-diazabicyclo[2.2.2]octan-2-yl)methyl)-1-(((S)-oxetan-2-yl)methyl)-1 h-benzo[d]imidazole-6-carboxylic acid] | > 1000 |
| O=C(O)c1ccc2nc(CN3CC=C(c4nccc(NCc5ccc(Cl)cc5F)n4)CC3)n(C[C@@H]3CCO3)c2c1 [Compound 124, (S)-2-((4-(4-((4-chloro-2-fluorobenzyl)amino)pyrimidin-2-yl)-5,6-dihydropyridin-1(2H)-yl)methyl)-1-(oxetan-2-ylmethyl)-1H-benzo[d]imidazole-6-carboxylic add] | ≤ 1000 |
| O=C(O)c1ccc2nc(CN3CCC(=O)N(c4cccc(OCc5ccc(Cl)cc5F)n4)CC3)n(C[C@@H]3CCO3)c2c1 [Compound 57] | ≤ 1000 |
| O=C(O)c1ccc2nc(CN3CC=C(c4ccc5ccn(Cc6ccc(Cl)cc6F)c5c4)CC3)n(C[C@@H]3CCO3)c2c1 [Compound 27, (S)-2-((4-(1-(4-chloro-2-fluorobenzyl)-1 h-indol-6-yl)-5,6-dihydropyridin-1(2H)-yl)methyl)-1-(oxetan-2-ylmethyl)-1 h-benzo[d]imidazole-6-carboxylic add] | > 1000 |
| CC(C)(C)c1ccc(COc2cccc(C3=CCN(Cc4nc5ccc(C(=O)O)cc5n4C[C@@H]4CCO4)CC3)n2)cc1 [Compound 147, (S)-2-((6-((4-(tert-butyl)benzyl)oxy)-5′,6′-dihydro-[2,4′-bipyridin]-1′(2H)-yl)methyl)-1-(oxetan-2-ylmethyl)-1H-benzo[d]imidazole-6-carboxylic add] | ≤ 1000 |
| O=C(O)c1ccc2nc(CN3CCN(c4ccc5ccn(Cc6ccc(Cl)cc6F)c5c4)CC3)n(C[C@@H]3CCO3)c2c1 [Compound 14, (S)-2-((4-(1-(4-chloro-2-fluorobenzyl)-th-indol-6-yl)piperazin-1-yl)methyl)-1-(oxetan-2-ylmethyl)-1 h-benzo[d]imidazole-6-carboxylic acid] | > 1000 |
| O=C(O)c1ccc2nc(CN3CCN(c4ccc(=O)n(CCc5ccc(Cl)cc5F)n4)CC3)n(C[C@@H]3CCO3)c2c1 [Compound 6, (S)-2-((4-(1-(4-chloro-2-fluorophenethyl)-6-oxo-1,6-dihydropyridazin-3-yl)piperazin-1-yl)methyl)-1-(oxetan-2-ylmethyl)-1 h-benzo[d]imidazole-6-carboxylic add] | > 1000 |
| O=C(O)c1ccc2nc(CN3CC=C(c4cccc(OCc5ccncc5)n4)CC3)n(C[C@@H]3CCO3)c2c1 [Compound 160, (S)-1-(oxetan-2-ylmethyl)-2-((6-(pyridin-4-ylmethoxy)-5′,6′-dihydro-[2H′-bipyridin]-1′(2′H)-yl)methyl)-1H-benzo[d]imidazole-6-carboxylic acid] | ≤ 150 |
| O=C(O)c1ccc2nc(CN3CC=C(c4cccc(OCc5ccc(-n6nccn6)cc5)n4)CC3)n(C[C@@H]3CCO3)c2c1 [Compound 243, (S)-2-((6-((4-(2H-1,2,3-triazol-2-yl)benzyl)oxy)-3′,6′-dihydro-[2,4′-bipyridin]-1′(2′H)-yl)methyl)-1-(oxetan-2-ylmethyl)-1H-benzo[d]imidazole-6-carboxylic add] | ≤ 150 |
| N#Cc1ccc(COc2cccc(N3CC=C(Cc4nc5ccc(C(=O)O)cc5n4C[C@@H]4CCO4)CC3)n2)c(F)c1 [Compound 240, (S)-2-((6′-((4-cyano-2-fluorobenzyl)oxy)-3,6-dihydro-2H-[1,2′-bipyridin]-4-yl)methyl)-1-(oxetan-2-ylmethyl)-1H-benzo[d]imidazole-6-carboxylic add] | ≤ 150 |

More lines, now with the values ahead:

| EC50 [nM] | SMILES |
| --- | --- |
| ≤ 15 | O=C(O)c1ccc2nc(CN3CCN(c4cc(F)c(F)c(OCc5ccc(Cl)cc5F)c4)CC3)n(C[C@@H]3CCO3)c2c1 [Compound 187, (S)-2-((4-(3-(4-chloro-2-fluorobenzyloxy)-4,5-difluorophenyl)piperazin-1-yl)methyl)-1-(oxetan-2-ylmethyl)-1H-benzo[d]imidazole-6-carboxylic acid] |
| ≤ 15 | N#Cc1ccc(COc2ccc(F)c(C3=CCN(Cc4nc5ccc(C(=O)O)cc5n4C[C@@H]4CCO4)CC3)n2)c(F)c1 [Compound 223, (S)-2-((6-((4-cyano-2-fluorobenzyl)oxy)-3-fluoro-3′,6′-dihydro-[2,4′-bipyridin]-1(2′H)-yl)methyl)-1-(oxetan-2-ylmethyl)-1H-benzo[d]imidazole-6-carboxylic acid] |
| ≤ 15 | N#Cc1ccc(COc2cccc(N3CCC(Cc4nc5ccc(C(=O)O)cc5n4C[C@@H]4CCO4)CC3)n2)c(F)c1 [Compound 226, (S)-2-((l-(6-((4-cyano-2-fluorobenzyl)oxy)pyridin-2-yl)piperidin-4-yl)methyl)-1-(oxetan-2-ylmethyl)-1H-benzo[d]imidazole-6-carboxylic acid] |
| ≤ 15 | Cc1cc2nc(CN3CC=C(c4cccc(OCc5ccc(Cl)cc5)n4)CC3)n(C[C@@H]3CCO3)c2cc1C(=O)O [Compound 111, (S)-2-((4-(6-(4-chlorobenzyloxy)pyridin-2-yl)-5,6-dihydropyridin-1(2H)-yl)methyl)-5-methyl-1-(oxetan-2-ylmethyl)-1H-benzo[d]imidazole-6-carboxylic acid] |
| ≤ 15 | O=C(O)c1ccc2nc(CN3CC=C(c4cccc(OCc5ccc6c(c5)OCO6)n4)CC3)n(C[C@@H]3CCO3)c2c1 [Compound 152] |
| ≤ 15 | O=C(O)c1ccc2nc(CN3CC=C(c4cccc(OCc5ccccc5F)n4)CC3)n(C[C@@H]3CCO3)c2c1 [Compound 155, (S)-2-((6-((2-fluorobenzyl)oxy)-3′,6′-dihydro-[2H′-bipyridin]-1′(2′H)-yl)methyl)-1-(oxetan-2-ylmethyl)-1H-benzo[d]imidazole-6-carboxylic acid] |
| ≤ 150 | O=C(O)c1ccc2nc(CN3CC=C(c4ncc(F)c(NCc5ccc(Cl)cc5F)n4)CC3)n(C[C@@H]3CCO3)c2c1 [Compound 122, (S)-2-((4-(4-(4-chloro-2-fluorobenzylamino)-5-fluoropyrimidin-2-yl)-5,6-dihydropyridin-1(2H)-yl)methyl)-1-(oxetan-2-ylmethyl)-1H-benzo[d]imidazole-6-carboxylic acid] |
| ≤ 15 | O=C(O)c1ccc2nc(CN3CC=C(c4nc(OCc5ccc(C#CC6CC6)cc5F)c(F)cc4F)CC3)n(C[C@@H]3CCO3)c2c1 [Compound 213, (S)-2-((4-(6-(4-(cyclopropylethynyl)-2-fluorobenzyloxy)-3,5-difluoropyridin-2-yl)-5,6-dihydropyridin-1(2H)-yl)methyl)-3-(oxetan-2-ylmethyl)-3H-benzo[d]imidazole-5-carboxylic add] |
| ≤ 15 | CC(Oc1cccc(C2=CCN(Cc3nc4ccc(C(=O)O)cc4n3C[C@@H]3CCO3)CC2)n1)c1ccc(Cl)cc1F (stereo partly drawn) [Compound 70] |
| ≤ 15 | O=C(O)c1ccc2nc(CN3CCN(c4nccc(OCc5ccc(Cl)cc5F)n4)CC3)n(C[C@@H]3CCO3)c2c1 [Compound 181, (S)-2-((4-(4-((4-chloro-2-fluorobenzyl)oxy)pyrimidin-2-yl)piperazin-1-yl)methyl)-1-(oxetan-2-ylmethyl)-1H-benzo[d]imidazole-6-carboxylic acid] |
| ≤ 15 | O=C(O)c1ccc2nc(CN3CC=C(c4nc(OCc5ccc(Cl)cc5F)ncc4F)CC3)n(C[C@@H]3CCO3)c2c1 [Compound 126, (S)-2-((4-(2-(4-chloro-2-fluorobenzyloxy)-5-fluoropyrimidin-4-yl)-5,6-dihydropyridin-1(2H)-yl)methyl)-1-(oxetan-2-ylmethyl)-1H-benzo[d]imidazole-6-carboxylic acid] |
| ≤ 150 | O=C(O)c1ccc2nc(CN3CC=C(c4ccnc(OCc5ccc(F)cc5F)n4)CC3)n(C[C@@H]3CCO3)c2c1 [Compound 215, (S)-2-((4-(2-((2H-difluorobenzyl)oxy)pyrimidin-4-yl)-3,6-dihydropyridin-1(2H)-yl)methyl)-1-(oxetan-2-ylmethyl)-1H-benzo[d]imidazole-6-carboxylic acid] |
| ≤ 15 | O=C(O)c1ccc2nc(CN3CCN(c4cccc(OCc5ccc(Cl)cc5F)c4)CC3)n(C[C@@H]3CCO3)c2c1 [Compound 178, (S)-2-((4-(3-((4-chloro-2-fluorobenzyl)oxy)phenyl)piperazin-1-yl)methyl)-1-(oxetan-2-ylmethyl)-1H-benzo[d]imidazole-6-carboxylic add] |
| ≤ 15 | O=C(O)c1ccc2nc(CN3CC=C(c4cc(F)c(F)c(OCc5ccc(Cl)cc5F)c4)CC3)n(C[C@@H]3CCO3)c2c1 [Compound 41, (S)-2-((4-(3-(4-chloro-2-fluorobenzyloxy)-4,5-difluorophenyl)-5,6-dihydropyridin-1(2H)-yl)methyl)-1-(oxetan-2-ylmethyl)-1 h-benzo[d]imidazole-6-carboxylic acid] |
| ≤ 150 | N#Cc1ccc(COc2cccc(N3CCN(Cc4nc5ccc(C(=O)O)nc5n4C[C@@H]4CCO4)CC3=O)n2)c(F)c1 [Compound 234, (S)-2-((4-(6-(4-cyano-2-fluorobenzyloxy)pyridin-2-yl)-3-oxopiperazin-1-yl)methyl)-3-(oxetan-2-ylmethyl)-3H-imidazo[4,5-b]pyridine-5-carboxylic acid] |
| ≤ 15 | N#Cc1ccc(COc2ccc(F)c(C3=CCN(Cc4nc5ccc(C(=O)O)cc5n4C[C@@H]4CCO4)CC3)c2)c(F)c1 [Compound 206, (S)-2-((4-(5-((4-cyano-2-fluorobenzyl)oxy)-2-fluorophenyl)-3,6-dihydropyridin-1(2H)-yl)methyl)-1-(oxetan-2-ylmethyl)-1H-benzo[d]imidazole-6-carboxylic add] |
